Laboratory results from US4060526A, “1-Heterocyclic alkyl-1,2,3,4-tetrahydroquinazolinones and analgesic intermediates thereof” (priority 1976, dated 1977).
Read-outs that look alike come from different tables or passages of the source.

Key:
[1] = hypothermic effect, rectal temperature; format: in vivo; details: mice; words
Protocol: Rectal temperatures were recorded periodically in mice following administration of 740-222 by oral route.

in vivo [2] = details: ip
heat stimulus [3] = test: mouse hot plate test (Eddy and Leimbach, modified); details: for ED50: Mus musculus, read-out: Hot Plate ED50
[4] = mouse hot plate test (Eddy and Leimbach, modified); details: mouse, in vivo, LD50 /ED50 H.P.
[5] = tested on: isolated guinea pig ileum (Histamine); test: isolated guinea pig ileum screen, block of histamine (antihistaminic); details: for Amount to produce a 50% block of Histamine: isolated guinea pig ileum, 37° C.; for antihistaminic activity compared with diphenhydramine: words
Source text: Contractions were elicited by histamine phosphate. The concentration of compound required to block these contractions when added to the tissue bath prior to introduction of histamine is taken as evidence of antihistaminic action.

[6] = tested on: isolated guinea pig ileum (Acetylcholine); test: isolated guinea pig ileum screen, block of acetylcholine
[7] = tested on: phenylbenzoquinone writhing; test: phenylbenzoquinone writhing test, mouse; format: in vivo
Protocol: (§7) In addition to the hot plate method, the writhing test described by Sigmund et al., Soc. Exp. Biol. and Med. 95:729 (1957) has been applied in both rats and mice as further indication of analgesics. […] The stimulus of intraperitoneal injection of phenylbenzoquinone results in a writhing syndrome characterized by periodic twisting and stretching of the body with extension of the hind legs. […] The dose of compound protecting 50% of the animals is determined and expressed as the ED50. Ten animals are used at each dose level.

[8] = phenylbenzoquinone writhing test, mouse; format: in vivo; details: mouse, in vivo
Protocol: as §7

[9] = analgesic activity and general pharmacology, conventional testing methods; format: in vivo; details: words
Source text: Ten animals are used for each dose level.
Ten animals are used at each dose level.

morphine analgesia = test: antagonism of morphine analgesia (Harris & Pearson, modified D'Amour & Smith); format: in vivo; details: rats; words
Protocol: (§1) The compounds of this invention were tested for their ability to antagonize narcotic analgesics by two different tests. […] Another test used for narcotic antagonist activity was published by Harris & Pearson. This test is modification of the D'Amour & Smith method.
(§2) In the original method the time required for rats to flick their tails following application of a heat stimulus is taken as a measure of analgesic potency.

NARCOTIC ANTAGONISM = test: narcotic antagonism (Table IV); format: in vivo; details: I.P.
Protocol: as §1, §2

in vivo [10] = details: for selectivity ratio / LD50: mouse; for LD50 at 48 h: read-out: LD50 (48 hr)
[11] = tested on: metrazol induced convulsions; test: anticonvulsant activity, pentylenetetrazol (Metrazol) convulsions; format: in vivo; details: mice, words
[12] = tested on: pinna reflex, corneal reflex; test: pinna / corneal reflex test (Witkin et al.), tranquilizer activity; format: in vivo, mouse; details: for ratio of ED50 corneal/ED50 pinna: mouse, exceeding unity = tranquilizer type action; for tranquilizer classification from corneal/pinna ratio: words
Source text: (§3) A tranquil sedation has been observed in mice, rats, cats and monkeys following administration of these compounds in doses exceeding those that are required for analgesia. In addition further indirect evidence for tranquilizer activity has been obtained by application of a method described by Witkin et al., J. Pharmacol, and Exp. Ther. 126:330 (1959)
This test is based upon observations that the pinna reflex of the mouse is blocked at relatively low doses of major tranquilizer drugs whereas very high doses are needed to block the corneal reflex. A ratio of ED50 corneal/ED50 pinna exceeding unity is taken as evidence of tranquilizer type action. […].

in vivo [13] = details: mouse
[14] = tested on: oxymorphone induced mydriasis; test: antagonism of oxymorphone induced mydriasis; format: in vivo, mice; details: words
Protocol: as §1

intestinal motility = test: gastrointestinal motility suppression (Brittain & Collier, modified), charcoal; format: in vivo; details: mice, words
heat stimulus [15] = test: D'Amour Smith Rat Tail Flick; format: in vivo; details: Rattus norvegicus
Source text: as §2

[16] = tested on: phenylbenzoquinone writhing; test: phenylbenzoquinone writhing test, rat; format: in vivo
Source text: (§4) […]. […] Ten animals are used at each dose level.

[17] = phenylbenzoquinone writhing test, rat; format: in vivo; details: rat, in vivo
Source text: as §4

acute toxicity, cat = details: in vivo
Protocol: (§5) Compounds were administered in 2% clearjel as a suspension except in
(§6) Toxicities have only been run with male animals to date.

solubility = format: physicochemical; details: words
acute toxicity, rat = details: in vivo, sc; Rat s.c.; preliminary result
Protocol: as §5, §6

in vivo [18] = test: in vivo; design: species or system mice, rats, cats and monkeys
Source text: as §3

[19] = po, Mouse p.o., read-out: LD50 /ED50 Writhing

NC(=O)c1ccccc1NCCN1CCN(c2ccccc2)CC1 [Example I, 2-[2-(4-[1-Phenyl]piperazinyl)ethylamino]-benzamide]
hypothermic effect [1]: also effective in this respect | LD50 (in vivo [2]): 800 mg/kg | NOAEL (in vivo [2]): 2 mg/kg | ED50 (heat stimulus [3]; ip): 1.5 mg/kg | ED50 (heat stimulus [3]; po): 3 mg/kg | ED50 (heat stimulus [3]; sc): 4.1 mg/kg | selectivity ratio ([4]; ip, Mouse i.p.): 670 | selectivity ratio ([4]; po, Mouse p.o.): > 330 | selectivity ratio ([4]; sc, Mouse s.c.): > 240 | Amount to produce a 50% block of Histamine [5]: 0.8 micrograms | antihistaminic activity compared with diphenhydramine [5]: about half as active as the standard | Amount to produce a 50% block of Acetylcholine [6]: 126 micrograms | ED50 ([7]; po, Mouse p.o.): 2.9 mg/kg | ED50 ([7]; sc, Mouse s.c.): 1.6 mg/kg | selectivity ratio ([8]; po): 1.9 | selectivity ratio [8, 19]: > 340 | selectivity ratio ([8]; sc): 6.3 | selectivity ratio ([8]; sc, Mouse s.c., read-out: LD50 /ED50 Writhing): > 620 | analgesic activity compared with morphine, hot plate and writhing tests [9]: approximately equivalent to or slightly more active than morphine | oral versus parenteral analgesic activity [9]: more active by the parenteral routes than by the oral route | antagonism of morphine analgesia (morphine analgesia): at lower dose levels antagonism of morphine analgesia was observed in rats | NARCOTIC ANTAGONISM (NARCOTIC ANTAGONISM): Positive | selectivity ratio (in vivo [10]): > 300 | LD50 (in vivo [10]; read-out: acute toxicity (LD50)): 800 to 1000 mg/kg | antagonism of metrazol induced convulsions ([11]; subcutaneous): not effective by the subcutaneous route | ratio of ED50 corneal/ED50 pinna [12]: approximately 0.5 | tranquilizer classification from corneal/pinna ratio [12]: within the range of ratios expected with sedatives (0.3 to 0.7) | selectivity ratio (in vivo [13]; ip): 1.2 | selectivity ratio (in vivo [13]; po): 1.9 | selectivity ratio (in vivo [13]; sc): 2.4 | antagonism of oxymorphone induced mydriasis [14]: effective in antagonizing oxymorphone induced mydriasis | suppression of intestinal motility (intestinal motility): less important | ED50 (heat stimulus [15]; sc, Sub. cut., read-out: Rat Tail Flick ED50): > 18 mg/kg | ED50 ([16]; sc, Rat Sub. cut, read-out: Writhing ED50): 2.5 mg/kg | selectivity ratio [17]: 2 | selectivity ratio ([17]; Rat Sub. cut, read-out: LD50 /ED50 Writhing): 400

O=C1NC(c2ccccc2)N(CCN2CCN(c3ccccc3)CC2)c2ccccc21 (stereo not shown) [Example II, 1-[2-(1-Phenyl-4-piperazinyl)ethyl]-2-phenyl-1,2,3,4-tetrahydro-4-quinazolinone]
hypothermic effect [1]: effectively reduced body temperature in normal mice | ED50 (heat stimulus [3]; ip): 52 mg/kg | ED50 (heat stimulus [3]; po): 20 mg/kg | ED50 (heat stimulus [3]; sc): > 562 mg/kg | analgesic activity compared with codeine, hot plate (heat stimulus [3]; mice, oral, words): of the same order as codeine | analgesic activity compared with morphine, hot plate (heat stimulus [3]; mice, oral, words): slightly less than morphine | selectivity ratio ([4]; ip, Mouse i.p.): > 17 | selectivity ratio ([4]; po, Mouse p.o.): > 50 | Amount to produce a 50% block of Histamine [5]: 0.5 micrograms | antihistaminic activity compared with diphenhydramine [5]: about the same activity as the standard antihistaminic diphenhydramine | Amount to produce a 50% block of Acetylcholine [6]: 1000 micrograms | activity relative to morphine, writhing test ([7]; mice): approximately one third | ED50 ([7]; po, Mouse p.o.): 11 mg/kg | selectivity ratio ([8]; po): 9 | selectivity ratio [8, 19]: > 91 | oral versus parenteral analgesic activity [9]: more active by the oral than the parenteral route | antagonism of morphine analgesia (morphine analgesia): not effective by the subcutaneous route | LD50 at 48 h (in vivo [10]; ip, Mouse i.p.): > 2500 mg/kg | LD50 (in vivo [10]; mice, all routes tested, read-out: acute toxicity): > 1000 mg/kg | selectivity ratio (in vivo [10]; oral route, read-out: therapeutic index (lethal dose to effective dose)): > 300 | LD50 at 48 h (in vivo [10]; po, Mouse p.o.): > 10000 mg/kg | LD50 at 48 h (in vivo [10]; sc, Mouse s.c.): > 1000 mg/kg | antagonism of metrazol induced convulsions ([11]; oral): able to antagonize these metrazol induced convulsions in mice | ratio of ED50 corneal/ED50 pinna [12]: greater than 10 | tranquilizer classification from corneal/pinna ratio [12]: classified as possessing tranquilizer activity | selectivity ratio (in vivo [13]; ip): 3.4 | selectivity ratio (in vivo [13]; po): 5 | LD50 at 48 h (acute toxicity, cat; ip, Cat i.p., preliminary result (740-222)): > 1000 mg/kg | LD50 at 48 h (acute toxicity, cat; po, Cat p.o., preliminary result): > 1000 mg/kg | solubility (solubility): low solubility | antagonism of oxymorphone induced mydriasis [14]: slight antagonism of oxymorphone induced mydriasis in mice by the intraperiteneal route only | suppression of intestinal motility (intestinal motility): effective in suppressing intestinal motility in mice | suppression of intestinal motility (intestinal motility; listed as 740-222): reduces gut motility | LD50 at 48 h (acute toxicity, rat): > 1000 mg/kg | ED50 (heat stimulus [15]; po, read-out: D'Amour Smith Rat Tail Flick ED50): > 100 mg/kg | selectivity ratio (in vivo [18]): ~10 | ED50 ([16]; Rattus norvegicus, rats, oral, read-out: dose at which writhing syndrome is 50% blocked): 10 mg/kg | ED50 ([16]; po, Rat p.o., read-out: Writhing ED50): 14 mg/kg | selectivity ratio ([17]; po): 7.1 | selectivity ratio ([17]; po, Rat p.o., read-out: LD50 /ED50 Writhing): 71
